The record followed here is PubChem BioAssay AID200 (DTP/NCI, 2004).

Values joined by “and” are separate entries in the source; they are usually repeats but may differ in a detail not shown here. Equal entries are not always repeated. Toxic doses and inconclusive results are not listed.

The test system of the test is B6C3F1 mice, B16 melanoma ip, median survival T/C. Kind of test: NCI In Vivo Anticancer Drug Screen. Data for tumor model B16 Melanoma (intraperitoneal) in B6C3F1 mice. Conditions: endpoint: median survival time, higher = longer survival. In outline: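 Transplantable tumor in mice; treated vs vehicle control groups; survival or tumor size measured; value = T/C ratio.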

The mark [1] stands for this setting: dose: 6.25 mg/kg/injection, schedule: Q01DX009 (ip), vehicle: Klucel (hydroxypropylcellulose) (HPC).
Setting [2] is: dose: 25.0 mg/kg/injection, schedule: Q01DX009 (ip), vehicle: Klucel (hydroxypropylcellulose) (HPC).
The mark [3] stands for this setting: dose: 100.0 mg/kg/injection, schedule: Q01DX009 (ip), vehicle: saline.
Where [4] appears, read: dose: 50.0 mg/kg/injection, schedule: Q01DX009 (ip), vehicle: saline with Tween-80.
Where [5] appears, read: dose: 100.0 mg/kg/injection, schedule: Q01DX009 (ip), vehicle: saline with Tween-80.
Setting [6] is: dose: 200.0 mg/kg/injection, schedule: Q01DX009 (ip), vehicle: saline with Tween-80.
The mark [7] stands for this setting: dose: 12.5 mg/kg/injection, schedule: Q01DX009 (ip), vehicle: Klucel (hydroxypropylcellulose) (HPC).
The mark [8] stands for this setting: dose: 50.0 mg/kg/injection, schedule: Q01DX009 (ip), vehicle: Klucel (hydroxypropylcellulose) (HPC).
Setting [9] is: dose: 100.0 mg/kg/injection, schedule: Q01DX009 (ip), vehicle: Klucel (hydroxypropylcellulose) (HPC).
Where [10] appears, read: dose: 200.0 mg/kg/injection, schedule: Q01DX009 (ip), vehicle: Klucel (hydroxypropylcellulose) (HPC).
Where [11] appears, read: dose: 400.0 mg/kg/injection, schedule: Q01DX009 (ip), vehicle: saline with Tween-80.
The mark [12] stands for this setting: dose: 12.5 mg/kg/injection, schedule: Q01DX009 (ip), vehicle: saline with Tween-80.

For `NC(=O)Oc1cc(OC(N)=O)cc(N(CCCl)CCCl)c1`, the T/C was 115 % of control (dose: 3.12 mg/kg/injection, schedule: Q01DX009 (ip), vehicle: Klucel (hydroxypropylcellulose) (HPC)); 107 % of control under setting [1]; 91 % of control (dose: 6.25 mg/kg/injection, schedule: Q01DX009 (ip), vehicle: saline); 96 % of control (dose: 12.5 mg/kg/injection, schedule: Q01DX009 (ip), vehicle: saline); 170 % of control under setting [2]; 104 % of control (dose: 25.0 mg/kg/injection, schedule: Q01DX009 (ip), vehicle: saline). In addition, the T/C runs as follows: (dose: 50.0 mg/kg/injection, schedule: Q01DX009 (ip), vehicle: saline) 104 % of control; under setting [3], 102 % of control.

Take `N#Cc1ccc(NN=O)nc1`: the T/C by setting is: (dose: 3.12 mg/kg/injection, schedule: Q01DX009 (ip), vehicle: water) 102 % of control; (dose: 3.13 mg/kg/injection, schedule: Q01DX009 (ip), vehicle: water) 119 % of control; (dose: 4.5 mg/kg/injection, schedule: Q01DX009 (ip), vehicle: saline) 117 % of control; (dose: 6.25 mg/kg/injection, schedule: Q01DX009 (ip), vehicle: water) 113 % of control and 122 % of control; (dose: 7.5 mg/kg/injection, schedule: Q01DX009 (ip), vehicle: saline) 108 % of control; (dose: 20.83 mg/kg/injection, schedule: Q01DX009 (ip), vehicle: saline) 123 % of control. Also, the T/C (dose: 34.72 mg/kg/injection, schedule: Q01DX009 (ip), vehicle: saline) is 120 % of control.

In the case of `NC(=O)SCC(N)C(=O)O` (stereo not drawn), the T/C under setting [4] is 92 % of control, the T/C under setting [5] was 87 % of control and the T/C under setting [6] is 96 % of control.

In the case of `CSc1cc(C)[o+]c(C)c1`, the T/C runs as follows: under setting [7], 106 % of control; under setting [2], 105 % of control; under setting [8], 106 % of control; under setting [9], 109 % of control; under setting [10], 101 % of control.

Take `COc1cc(C[C@@H]2COC(=O)[C@]2(O)Cc2ccc(O)c(OC)c2)ccc1O`: the T/C was 102 % of control (dose: 1.0 mg/kg/injection, schedule: Q01DX009 (ip), vehicle: saline + alcohol); 88 % of control (dose: 2.0 mg/kg/injection, schedule: Q01DX009 (ip), vehicle: saline + alcohol); 91 % of control (dose: 4.0 mg/kg/injection, schedule: Q01DX009 (ip), vehicle: saline + alcohol); 101 % of control (dose: 8.0 mg/kg/injection, schedule: Q01DX009 (ip), vehicle: saline + alcohol); 86 % of control (dose: 16.0 mg/kg/injection, schedule: Q01DX009 (ip), vehicle: saline + alcohol).

For `NC(=O)C#CC(N)=O`, the T/C runs as follows: (dose: 0.06 mg/kg/injection, schedule: Q01DX009 (ip), vehicle: Klucel (hydroxypropylcellulose) (HPC)) 101 % of control; (dose: 0.12 mg/kg/injection, schedule: Q01DX009 (ip), vehicle: Klucel (hydroxypropylcellulose) (HPC)) 102 % of control; (dose: 0.23 mg/kg/injection, schedule: Q01DX009 (ip), vehicle: Klucel (hydroxypropylcellulose) (HPC)) 97 % of control; (dose: 0.45 mg/kg/injection, schedule: Q01DX009 (ip), vehicle: Klucel (hydroxypropylcellulose) (HPC)) 100 % of control; (dose: 0.9 mg/kg/injection, schedule: Q01DX009 (ip), vehicle: Klucel (hydroxypropylcellulose) (HPC)) 102 % of control.

`CC(C)CC(NC(=O)CN)C(=O)O` (stereo not drawn): the T/C reads like this: under setting [5], 101 % of control; under setting [6], 95 % of control; under setting [11], 97 % of control.

On to `CC[C@@H](C)[C@H]([C@H](CC(=O)N1CCC[C@@H]1[C@@H](OC)[C@H](C)C(=O)N[C@H](Cc1ccccc1)c1nccs1)OC)N(C)C(=O)[C@H](NC(=O)[C@@H](C(C)C)N(C)C)C(C)C`, for which the T/C (dose: 2.4 micrograms/kg/injection, schedule: Q01DX009 (ip), vehicle: saline + alcohol) was 171 % of control; the T/C (dose: 4.0 micrograms/kg/injection, schedule: Q01DX009 (ip), vehicle: saline + alcohol) is 205 % of control; the T/C (dose: 6.67 micrograms/kg/injection, schedule: Q01DX009 (ip), vehicle: saline + alcohol) was 182 % of control; the T/C (dose: 11.11 micrograms/kg/injection, schedule: Q01DX009 (ip), vehicle: saline + alcohol) is 238 % of control.

`Nc1ccc(OC(=O)Oc2ccc(N)cc2)cc1`: the T/C runs as follows: under setting [3], 113 % of control; (dose: 200.0 mg/kg/injection, schedule: Q01DX009 (ip), vehicle: saline) 104 % of control; (dose: 400.0 mg/kg/injection, schedule: Q01DX009 (ip), vehicle: saline) 98 % of control.

On to `CC(=O)C1=C(O)C2(O)C(=O)c3c(c(C)c4ccc(C)c(O)c4c3O)CC2C(N)C1=O` (stereo not drawn), for which the T/C reads like this: (dose: 3.75 mg/kg/injection, schedule: Q01DX009 (ip), vehicle: saline + alcohol) 109 % of control; (dose: 7.3 mg/kg/injection, schedule: Q01DX009 (ip), vehicle: saline + alcohol) 120 % of control; (dose: 7.5 mg/kg/injection, schedule: Q01DX009 (ip), vehicle: saline + alcohol) 114 % of control.

Regarding `O=C(O)CSc1c(Cl)c(=O)oc2ccc(Cl)cc12`, the T/C under setting [1] is 97 % of control; the T/C under setting [7] is 95 % of control; the T/C under setting [2] is 101 % of control; the T/C under setting [8] was 107 % of control; the T/C under setting [9] was 116 % of control.

Turning to `O=C1c2ccccc2C(=O)c2c(NCCNCCO)ccc(NCCNCCO)c21`, the T/C (dose: 1.0 mg/kg/injection, schedule: Q01DX009 (ip), vehicle: other) was 151 % of control; the T/C (dose: 2.0 mg/kg/injection, schedule: Q01DX009 (ip), vehicle: other) was 180 % of control and 186 % of control; the T/C (dose: 2.5 mg/kg/injection, schedule: Q01DX009 (ip), vehicle: water) was 195 % of control; the T/C (dose: 4.0 mg/kg/injection, schedule: Q01DX009 (ip), vehicle: other) was 195 % of control and 248 % of control; the T/C (dose: 4.0 mg/kg/injection, schedule: Q01DX009 (ip), vehicle: saline) is 179 % of control; the T/C (dose: 5.0 mg/kg/injection, schedule: Q01DX009 (ip), vehicle: water) is 205 % of control. Further, the T/C reads like this: (dose: 8.0 mg/kg/injection, schedule: Q01DX009 (ip), vehicle: other) 218 % of control and 243 % of control; (dose: 8.0 mg/kg/injection, schedule: Q01DX009 (ip), vehicle: saline) 234 % of control; (dose: 10.0 mg/kg/injection, schedule: Q01DX009 (ip), vehicle: water) 215 % of control; (dose: 16.0 mg/kg/injection, schedule: Q01DX009 (ip), vehicle: other) 215 % of control and 231 % of control; (dose: 16.0 mg/kg/injection, schedule: Q01DX009 (ip), vehicle: saline) 292 % of control; (dose: 20.0 mg/kg/injection, schedule: Q01DX009 (ip), vehicle: water) 220 % of control. The T/C runs as follows: (dose: 32.0 mg/kg/injection, schedule: Q01DX009 (ip), vehicle: saline) 292 % of control; (dose: 62.5 mg/kg/injection, schedule: Q01DX001 (ip), vehicle: saline) 153 % of control.

Consider `O=C1NC(c2ccccc2)N=C2Oc3ccccc3C=C12` (stereo not drawn), for which the T/C is, setting by setting: (dose: 1.56 mg/kg/injection, schedule: Q01DX009 (ip), vehicle: saline with Tween-80) 101 % of control; (dose: 3.12 mg/kg/injection, schedule: Q01DX009 (ip), vehicle: saline with Tween-80) 103 % of control; (dose: 3.13 mg/kg/injection, schedule: Q01DX009 (ip), vehicle: saline with Tween-80) 97 % of control; (dose: 6.25 mg/kg/injection, schedule: Q01DX009 (ip), vehicle: saline with Tween-80) 118 % of control and 124 % of control; under setting [12], 116 % of control and 122 % of control; under setting [4], 113 % of control.

Regarding `C(C#CCN1CCOCC1)#CCN1CCOCC1`, the T/C by setting is: under setting [7], 102 % of control; under setting [12], 105 % of control; under setting [2], 110 % of control; (dose: 25.0 mg/kg/injection, schedule: Q01DX009 (ip), vehicle: saline with Tween-80) 106 % of control; under setting [8], 105 % of control; under setting [4], 106 % of control. Further, the T/C was 121 % of control under setting [9]; 111 % of control under setting [5]; 107 % of control under setting [10]; 98 % of control under setting [6]; 91 % of control (dose: 400.0 mg/kg/injection, schedule: Q01DX009 (ip), vehicle: Klucel (hydroxypropylcellulose) (HPC)); 86 % of control under setting [11].
